Where two headings read alike, the source gives them in different places. Marks after values point to notes of the source that are not given here.
Test system: patients with R/R AML
[1] = 120 mg, possibly related to treatment

CCc1nc(C(N)=O)c(Nc2ccc(N3CCC(N4CCN(C)CC4)CC3)c(OC)c2)nc1NC1CCOCC1 [gilteritinib]
1 (0·4%) n (%): Acute renal failure, Grade 4 (human, in vivo) | Anemia, Grade 1 (human, in vivo) | Anemia, Grade 5 (human, in vivo) | Bacteremia, Grade 5 (human, in vivo) | Cellulitis, Grade 5 (human, in vivo) | Decreased platelet count, Grade 1 (human, in vivo) | Elevated AST, Grade 4 (human, in vivo) | Elevated blood bilirubin, Grade 4 (human, in vivo) | Febrile neutropenia, Grade 5 (human, in vivo) | Gastrointestinal hemorrhage, Grade 4 (human, in vivo) | Hyperglycemia, Grade 4 (human, in vivo) | Hyperuricemia, Grade 4 (human, in vivo) | Hypocalcaemia, Grade 4 (human, in vivo) | Hypoxia, Grade 1 (human, in vivo) | Hypoxia, Grade 5 (human, in vivo) | Lung infection, Grade 5 (human, in vivo) | Neutropenia, Grade 5 (human, in vivo) | Pneumonia, Grade 1 (human, in vivo) | Pneumonia, Grade 4 (human, in vivo) | Sepsis, Grade 2 (human, in vivo) | Thrombocytopenia, Grade 1 (human, in vivo)
13 (5%) n (%): Bacteremia, Grade 3 (human, in vivo) | Diarrhea, Grade 3 (human, in vivo) | Elevated ALT, Grade 3 (human, in vivo) | Hypocalcaemia, Grade 1 (human, in vivo) | Hypoxia, Grade 3 (human, in vivo) | Pyrexia, Grade 3 (human, in vivo) | Syncope, Grade 3 (human, in vivo)
3%: AE that led to study discontinuation: sepsis (human, in vivo)
25 (10%) n (%): Elevated ALT, Grade 1 (human, in vivo)
2 (0·8%) n (%): Hypokalaemia, Grade 4 (human, in vivo) | Hypomagnesemia, Grade 2 (human, in vivo) | Hyponatraemia, Grade 4 (human, in vivo) | Hypotension, Grade 4 (human, in vivo) | Leukocytosis, Grade 4 (human, in vivo) | Leukopenia, Grade 3 (human, in vivo) | Mucosal inflammation, Grade 4 (human, in vivo) | Neutropenia, Grade 2 (human, in vivo) | Neutropenia, Grade 3 (human, in vivo) | Respiratory failure, Grade 3 (human, in vivo) | Septic shock, Grade 4 (human, in vivo) | Subdural hematoma, Grade 4 (human, in vivo) | Thrombocytopenia, Grade 3 (human, in vivo)
10%: Drug-related TEAEs leading to discontinuation (human, in vivo) | Patients requiring dose reductions (human, in vivo) | Serious adverse event: acute renal failure (human, in vivo)
11 (4%) n (%): Dizziness, Grade 2 (human, in vivo) | Dyspnea, Grade 3 (human, in vivo) | Fungal pneumonia, Grade 3 (human, in vivo) | Hypertension, Grade 2 (human, in vivo)
8%: Serious adverse event: pyrexia (human, in vivo)
3 n: Deaths, primary cause AML (20 mg) | Treatment-related Grade ≥3 elevated AST (200 mg/d)
24%: Grade 3/4 adverse event: anemia (human, in vivo)
10 (4%) n (%): Asthenia, Grade 2 (human, in vivo) | Fall, Grade 2 (human, in vivo) | Hyponatraemia, Grade 3 (human, in vivo) | Insomnia, Grade 2 (human, in vivo) | Stomatitis, Grade 2 (human, in vivo)
12 (5%) n (%): Urinary tract infection, Grade 3 (Table 2) | Decreased appetite, Grade 1 (human, in vivo) | Elevated blood creatinine, Grade 2 (human, in vivo) | Stomatitis, Grade 1 (human, in vivo)
2 (0.8) n (%): Progressive AML, Grade 3 (human, in vivo)
4%: Patients with maximum post-baseline QTcF interval >500 ms (human, in vivo)
14%: Serious adverse event: sepsis (human, in vivo)
1 (0.4%) n (%): Dyspnea, Grade 4 (human, in vivo)
31 (12%) n (%): Fatigue, Grade 1 (human, in vivo) | Thrombocytopenia, Grade 4 (human, in vivo)
< 1%: Treatment-related mortality from neutropenia (human, in vivo)
31%: Serious adverse event: febrile neutropenia (human, in vivo)
5 n: Deaths, primary cause AML (40 mg) | Deaths, primary cause AML (80 mg) | Deaths, primary cause Multi-organ failure (200 mg) | Deaths, primary cause Respiratory failure (200 mg) | Deaths, primary cause AML (300 mg)
4 (1·6%) n (%): Dysgeusia, Grade 2 (human, in vivo) | Elevated blood phosphocreatine kinase, Grade 4 (human, in vivo) | Gastrointestinal hemorrhage, Grade 3 (human, in vivo) | Hyponatraemia, Grade 2 (human, in vivo) | Pneumonia, Grade 5 (human, in vivo) | Septic shock, Grade 5 (human, in vivo) | Subdural hematoma, Grade 3 (human, in vivo)
5(2%) n (%): Hypoxia, Grade 4 (human, in vivo)
19 (8%) n (%): Arthralgia, Grade 1 (human, in vivo) | Nausea, Grade 2 (human, in vivo)
5 (2%) n (%): Atrial fibrillation, Grade 3 (human, in vivo) | Back pain, Grade 3 (human, in vivo) | Clostridium difficile colitis, Grade 3 (human, in vivo) | Decreased neutrophil count, Grade 2 (human, in vivo) | Elevated blood alkaline phosphatase, Grade 2 (human, in vivo) | Hyperuricemia, Grade 3 (human, in vivo) | Hypoalbuminemia, Grade 1 (human, in vivo) | Hypoalbuminemia, Grade 3 (human, in vivo) | Mucosal inflammation, Grade 3 (human, in vivo) | Muscle weakness, Grade 3 (human, in vivo) | Nausea, Grade 3 (human, in vivo) | Pleural effusion, Grade 3 (human, in vivo) | Respiratory failure, Grade 4 (human, in vivo) | Sepsis, Grade 3 (human, in vivo) | Skin infection, Grade 3 (human, in vivo) | Thrombocytopenia, Grade 2 (human, in vivo) | Vomiting, Grade 3 (human, in vivo)
1 (0.4) n (%): Fall, Grade 4 (human, in vivo)
7 (3%) n (%): Acute renal failure, Grade 1 (human, in vivo) | Cellulitis, Grade 3 (human, in vivo) | Decreased neutrophil count, Grade 3 (human, in vivo) | Decreased platelet count, Grade 3 (human, in vivo) | Elevated blood phosphocreatine kinase, Grade 1 (human, in vivo) | Elevated blood phosphocreatine kinase, Grade 2 (human, in vivo) | Elevated blood phosphocreatine kinase, Grade 3 (human, in vivo) | Fall, Grade 3 (human, in vivo) | Febrile neutropenia, Grade 4 (human, in vivo) | Hypokalaemia, Grade 3 (human, in vivo) | Hypotension, Grade 1 (human, in vivo) | Lung infection, Grade 3 (human, in vivo) | Multi-organ failure, Grade 5 (human, in vivo) | Respiratory failure, Grade 5 (human, in vivo) | Sepsis, Grade 5 (human, in vivo) | Vomiting, Grade 2 (human, in vivo)
10 n: Deaths, primary cause AML (120 mg)
Seven: Deaths considered possibly/probably related to treatment (in vivo)
16 (6%) n (%): Hypotension, Grade 3 (human, in vivo) | Pyrexia, Grade 2 (human, in vivo)
3 (1.2%) n (%): Edema peripheral, Grade 3 (human, in vivo)
1%: AE associated with dose reductions: diarrhea (human, in vivo) | AE associated with dose reductions: fatigue (human, in vivo) | Serious AE considered related to treatment: pyrexia (human, in vivo) | Serious AE considered related to treatment: sepsis (human, in vivo)
13%: Grade 3/4 adverse event: thromobocytopenia (human, in vivo)
36 (14%) n (%): Dizziness, Grade 1 (human, in vivo) | Epistaxis, Grade 1 (human, in vivo) | Pyrexia, Grade 1 (human, in vivo)
30 (12%) n (%): Decreased platelet count, Grade 4 (human, in vivo) | Nausea, Grade 1 (human, in vivo)
1 n: Deaths, primary cause Multi-organ failure (40 mg) | Deaths, primary cause Diabetic ketoacidosis (80 mg) | Deaths, primary cause Respiratory failure (80 mg) | Treatment-related Grade ≥3 elevated AST (80 mg/d) | Treatment-related Grade ≥3 elevated alanine aminotransferase (80 mg/d) | Deaths, primary cause Colitis/neutropenic colitis (120 mg) | Deaths, primary cause Hepatic infection (120 mg) | Deaths, primary cause Multi-organ failure (120 mg) | Deaths, primary cause Respiratory failure (120 mg) | Deaths, primary cause Sepsis/staphylococcal sepsis (120 mg) | Treatment-related Grade ≥3 diarrhea (120 mg/d) | Treatment-related Grade ≥3 elevated alanine aminotransferase (120 mg/d) | Deaths, primary cause Anemia (200 mg) | Deaths, primary cause Bronchopulmonary aspergillosis (200 mg) | Deaths, primary cause Cardiac arrest (200 mg) | Deaths, primary cause Cellulitis (200 mg) | Deaths, primary cause Cerebrovascular ischemia (200 mg) | Deaths, primary cause Colitis/neutropenic colitis (200 mg) | Deaths, primary cause Death NOS (200 mg) | Deaths, primary cause Febrile neutropenia (200 mg) | Deaths, primary cause Hypoxia (200 mg) | Deaths, primary cause Intracranial hemorrhage (200 mg) | Deaths, primary cause Loss of consciousness (200 mg) | Deaths, primary cause Lung infection (200 mg) | Deaths, primary cause Renal failure (200 mg) | Deaths, primary cause Sudden death (200 mg) | Deaths, primary cause Ventricular tachycardia (200 mg) | Deaths, primary cause Renal failure (300 mg) | Deaths, primary cause Respiratory failure (300 mg) | Treatment-related Grade ≥3 elevated AST (300 mg/d) | Deaths, primary cause Cardiac arrest (450 mg)
2%: Serious AE considered related to treatment: acute renal failure (human, in vivo) | Serious AE considered related to treatment: febrile neutropenia (human, in vivo)
43 (17%) n (%): Edema peripheral, Grade 1 (human, in vivo)
55 (22%) n (%): Anemia, Grade 3 (human, in vivo)
33 (13%) n (%): Elevated AST, Grade 1 (human, in vivo)
26 (10%) n (%): Pneumonia, Grade 3 (human, in vivo)
35 (14%) n (%): Vomiting, Grade 1 (human, in vivo)
< 20%: Probability of experiencing a DLT (doses up to 200mg)
32 (13%) n (%): Diarrhea, Grade 2 (human, in vivo)
3 (1·2%) n (%): Bacteremia, Grade 4 (human, in vivo) | Decreased platelet count, Grade 2 (human, in vivo) | Hyperphosphatemia, Grade 4 (human, in vivo) | Leukopenia, Grade 4 (human, in vivo) | Pneumonia, Grade 2 (human, in vivo)
6 (2%) n (%): Anemia, Grade 4 (human, in vivo) | Asthenia, Grade 3 (human, in vivo) | Decreased white blood cell count, Grade 3 (human, in vivo) | Elevated blood bilirubin, Grade 3 (human, in vivo) | Headache, Grade 2 (human, in vivo) | Hypertension, Grade 1 (human, in vivo) | Increased transaminase, Grade 3 (human, in vivo)
22 (9%) n (%): Headache, Grade 1 (human, in vivo) | Hypoalbuminemia, Grade 2 (human, in vivo) | Hypokalaemia, Grade 1 (human, in vivo)
9 (36%) n (%): Febrile neutropenia, Grade 3 (human, in vivo)
2 n: Deaths, primary cause Bacteremia/staphylococcal bacteremia (80 mg) | Deaths, primary cause Death NOS (120 mg) | Deaths, primary cause Pneumonia (120 mg) | Deaths, primary cause Pneumonia (200 mg) | Deaths, primary cause Septic shock (200 mg) | Treatment-related Grade ≥3 diarrhea (200 mg/d)
37 (15%) n (%): Fatigue, Grade 2 (human, in vivo)
28 (11%) n (%): Elevated blood alkaline phosphatase, Grade 1 (human, in vivo)
29 (12%) n (%): Dyspnea, Grade 1 (human, in vivo) | Hypomagnesemia, Grade 1 (human, in vivo)
1 ^b n: Deaths, primary cause Hemoptysis (80 mg, possibly related to treatment) | Deaths, primary cause Neutropenia [1] | Deaths, primary cause Ventricular fibrillation [1] | Deaths, primary cause Pulmonary embolism (200 mg, possibly related to treatment)
13 n: Deaths, primary cause AML (200 mg)
11%: Grade 3/4 adverse event: pneumonia (human, in vivo) | Grade 3/4 adverse event: sepsis (human, in vivo) | Serious adverse event: pneumonia (human, in vivo)
9 (4%) n (%): Acute renal failure, Grade 2 (human, in vivo) | Decreased white blood cell count, Grade 4 (human, in vivo) | Elevated ALT, Grade 2 (human, in vivo) | Epistaxis, Grade 2 (human, in vivo) | Leukocytosis, Grade 3 (human, in vivo)
18 (7%) n (%): Decreased appetite, Grade 2 (human, in vivo) | Dyspnea, Grade 2 (human, in vivo) | Elevated AST, Grade 2 (human, in vivo) | Hyponatraemia, Grade 1 (human, in vivo) | Neutropenia, Grade 4 (human, in vivo)
39%: Grade 3/4 adverse event: febrile neutropenia (human, in vivo)
8 n: Deaths, primary cause Sepsis/staphylococcal sepsis (200 mg)
17 (7%) n (%): Constipation, Grade 2 (human, in vivo) | Fall, Grade 1 (human, in vivo)
6%: AE that led to study discontinuation: progressive disease (human, in vivo) | Serious adverse event: bacteremia (human, in vivo) | Serious adverse event: respiratory failure (human, in vivo)
8 (3%) n (%): Acute renal failure, Grade 3 (human, in vivo) | Arthralgia, Grade 2 (human, in vivo) | Hyperglycemia, Grade 3 (human, in vivo) | Hypertension, Grade 3 (human, in vivo) | Hypoxia, Grade 2 (human, in vivo) | QT Prolongation, Grade 3 (human, in vivo)
21 (8%) n (%): Edema peripheral, Grade 2 (human, in vivo) | Hypotension, Grade 2 (human, in vivo)
17%: Serious adverse event: progressive disease (human, in vivo)
4 n: Treatment-related Grade ≥3 elevated alanine aminotransferase (200 mg/d)
15 (6%) n (%): Fatigue, Grade 3 (human, in vivo) | Hypocalcaemia, Grade 2 (human, in vivo)
40 (16%) n (%): Constipation, Grade 1 (human, in vivo) | Cough, Grade 1 (human, in vivo)
41 (16%) n (%): Progressive AML, Grade 5 (human, in vivo)
2 ^c n: Deaths, primary cause Intracranial hemorrhage (20 mg, one death considered possibly related to treatment) | Deaths, primary cause Septic shock (80 mg, one death considered possibly related to treatment)
14 (6%) n (%): Asthenia, Grade 1 (human, in vivo) | Cough, Grade 2 (human, in vivo) | Decreased neutrophil count, Grade 4 (human, in vivo) | Elevated AST, Grade 3 (human, in vivo) | Hyperphosphatemia, Grade 3 (human, in vivo) | Hypocalcaemia, Grade 3 (human, in vivo) | Hypokalaemia, Grade 2 (human, in vivo) | Insomnia, Grade 1 (human, in vivo)
23 (9%) n (%): Anemia, Grade 2 (human, in vivo) | Dysgeusia, Grade 1 (human, in vivo) | Elevated blood creatinine, Grade 1 (human, in vivo) | Sepsis, Grade 4 (human, in vivo)
47 (19%) n (%): Diarrhea, Grade 1 (human, in vivo)
